Patent US20250333393A1, “HETEROCYCLIC COMPOUND AS TYK2 INHIBITOR, AND SYNTHESIS AND USE THEREOF” (ZHEJIANG WENDA PHARMACEUTICAL TECHNOLOGY CO., LTD., priority 2023, published 2025)
Read-outs that look alike come from different tables or passages of the source.

Legend:
pSTAT5 in CD3+ cells = assay: Inhibition of IFN-alpha induced pSTAT5 expression in CD3+ cells (human PBMC), FACS assay; format: cell-based; details: IFN-α 20 ng/ml
Procedure: Test Example 1: The Inhibitory Effect of Compounds on the Expression of Pstat5 in CD3+ Cells Using FACS Assay
• DMSO, Sigma, Cat #D2650-100 mL, stored at room temperature. • Perm buffer III, BD Biosciences, Cat #558050, stored at 4° C. • Lyse/Fix buffer, BD Biosciences, Cat #558049, stored at room temperature. • EDTA, Invitrogen, Cat #15575-038, stored at room temperature. • PBS, Hyclone, Cat #SH30256.01, stored at 4° C. • PE Mouse Anti-Human CD3, BD Biosciences, Cat #555333, stored at 4° C. • Mouse anti-human Phospho-STAT5 (pY694) (Alexa Fluor® 647 Conjugate), • BD Biosciences, Cat #562076, stored at 4° C. • IFN-α, Biolegend, Cat #592702.
• 1) On the day of experiment, the compound was prepared into a 10 mM solution with DMSO, diluted to 1.5 mM in DMSO, and then diluted to 8 gradient concentrations in 3-fold dilutions Concentrations. • 2) 5 μL of the diluted compound was transferred into 120 ul of DPBS solution containing 0.1% BSA. • 3) Positive and negative control groups were set up, and 0.2% DMSO was added to the positive and negative control groups. 2.2 Experimental procedure • 1) 0.5 million and 67.5 ul of human PBMC cells was added to the 96-well cell culture plate per well. • 2) 3.5 ul of diluted compound was added and mixed well. • 3) Incubation was conducted in a 37° C. incubator for 60 minutes. • 4) IFN-alpha was diluted in DPBS containing 0.1% BSA to […], and PE anti-hCD3 antibody was diluted in DPBS containing 0.1% BSA to 3 fold. When the above 60-minute incubation was complete, diluted PE anti-hCD3 antibody was added at 5 ul per well and diluted IFN-α was added at 4 ul per well, i.e., the final concentration of IFN-α per well is 20 ng/ml. • 5) Incubation was conducted in a 37° C. incubator for 30 minutes. • 6) All cells were transferred to a 96-well deep well plate and 1 ml of 37° C. preheated lysis/fix buffer was added. • 7) Incubation was conducted at 37° C. in dark for 10 minutes. • 8) Centrifugation was carried out at 600 g for 5 minutes and then the supernatant was discarded. 1 ml PBS was added to wash for twice and then centrifuged. • 9) 1 ml of Perm buffer III was added to the cell precipitation. • 10) Incubation was conducted at 4° C. in dark for 30 minutes. • 11) Centrifugation was carried out at 600 g for 5 minutes and then the supernatant was discarded. 1 ml PBS was added to wash for twice and then centrifuged. • 12) APC anti-human pSTAT5 antibody was diluted in staining buffer by 200-fold, which was added to cell wells at 100 uL per well and mixed well. • 13) Incubation was conducted at room temperature for 40 minutes. • 14) Staining buffer was added to wash for twice with 1 mL for each well, and centrifugation was carried out at 600 g for 5 minutes. • 15) After discarding the supernatant, the cell precipitation was re-suspended in 300 μL of staining buffer. • 16) Sample loading and analysis were carried out in a flow cytometer. The IC50 of the samples to be tested was obtained from the above, Table 1.

[1] = Drug concentrations in plasma samples and brain tissue samples after oral administration, LC-MS/MS; format: in vivo, female C57BL/6 mice; details: female, C57BL/6, mouse, 15 consecutive days, 2Hr after the last dose, mice; for Kp at 2 h: brain/plasma, read-out: Ratio (brain tissue to plasma concentration)
Procedure: The purpose of the study was to evaluate drug concentrations in plasma samples and brain tissue samples of female C57BL/6 mice after 15 consecutive days of oral administration of 10 mg/kg, 30 mg/kg, and 90 mg/kg of Compound 4S. The drug concentrations of Compound 4S in plasma samples and brain tissue homogenate samples were detected by the positive ion (ESI) multi-reactive ion monitoring (MRM) scanning mode of LC-MS instrument with a linear range of 1-10000 ng/mL.
Plasma samples from 10 mice orally administered with Compound 4S: For standard curves, QC samples, single blanks, and unknown samples, the sample volume was 10 μL and each was added with 200 μL of methanol: acetonitrile=1:1 (v/v) precipitant (containing 5 ng/mL of Terfenadine). For double-blank samples, each was added with 200 μL of Methanol: Acetonitrile=1:1 (v/v) precipitant. The samples were vortexed for 1 min and centrifuged for 15 min (4000 rpm, 4° C.) to obtain the supernatant solution, which was diluted by 10-fold using methanol: water=1:1 (v/v, containing 0.1% FA) as the diluent solution and then subjected to LC-MS/MS analysis.
Brain tissue homogenate samples from 10 mice orally administered with Compound 4S: For standard curves, QC samples, single blanks, and unknown samples, the sample volume was 50 μL and each was added with 200 μL of methanol: acetonitrile=1:1 (v/v) precipitant (containing 5 ng/mL of Terfenadine). For double-blank samples, a 50 μL sample of blank brain tissue homogenate was taken and added with 200 μL of methanol/acetonitrile (1:1, v/v) precipitant. The samples were vortexed for 1 min and centrifuged for 15 min (4000 rpm, 4° C.) to obtain the supernatant solution, which was diluted by 10-fold using methanol: water=1:1 (v/v, containing 0.1% FA) as the diluent solution and then subjected to LC-MS/MS analysis. Drug exposures in plasma samples and brain tissue samples at different administered doses and at different frequencies of administration of the same administered dose were compared (Table 3).

JAK1(JH2) = JAK1(JH2) (Homo sapiens (Human), UniProt P23458); assay: Pseudo kinase experiment, JAK1 (JH2), tracer/Tb; format: binding
Procedure: (§1) 1.1.1. The compound was dissolved with DMSO to a storage concentration of 10 mM.
(§2) 1.1.2. A compound concentration of 200 times the final concentration was prepared in a compound dilution plate, which was diluted from the highest concentration point with a total of 4 concentration points using the 27 times dilution method, and transferred to the Echo plate.
(§3) 1.1.3. The compound was flushed from the Echo plate to the 384-well experimental plate using an Echo instrument, and the compound become 11 concentration points of the 3-fold dilution matrix.
(§4) 1.1.4. 5 μl of 3×TYK2(JH2) or JAK1(JH2) kinase was added to the 384-well experimental plate.
(§5) 1.1.5. 5 μl of 3×Tb was added to the 384-well experimental plate.
(§6) 1.1.6.5 μl of 3× Tracer was added to the 384-well experimental plate.
(§7) 1.1.7. Centrifugation was conducted for 30 seconds and incubation was carried out at room temperature for 60 minutes.
(§8) 1.1.8. The signal values were read using Envision Microplate Reader (PerkinElmer).
(§9) 1.3.1. XL-Fit software was used for data analysis to obtain IC50 of the compounds, Table 2.

JAK1 (JH1) = JAK1 (JH1) (Homo sapiens (Human), UniProt P23458); assay: JAK family kinase experiment, JAK1 (JH1); format: biochemical
Procedure: (§10) 1.2.1. The compound was dissolved with DMSO to a storage concentration of 10 mM.
(§11) 1.2.2. A compound concentration of 100 times the final concentration was prepared in a compound dilution plate, which was diluted from the highest concentration point with a total of 4 concentration points using the 27 times dilution method, and transferred to the Echo plate.
(§12) 1.2.3. The compound was flushed from the Echo plate to the 384 experimental plate using an Echo instrument, and the compound become 11 concentration points of the 3-fold dilution matrix.
(§13) 1.2.4. 2× kinase working solution was prepared, which was added to a 384-well experimental plate at 5 μl per well. The compound and the kinase were incubated at room temperature for 15 minutes.
(§14) 1.2.5. 5 ul of 2× substrate (containing ATP) was added to the 384 well plate.
(§15) 1.2.6. Incubation was conducted at room temperature for 45 minutes.
(§16) 1.2.7. The detection reagent mixture was added to the 384-well plate, and centrifuged for 30 seconds, and incubation was conducted at room temperature for 60 minutes.
(§17) 1.2.8. The signal values were read using Envision Microplate Reader (PerkinElmer).
as §9

JAK3 (JH1) = JAK3 (JH1) (Homo sapiens (Human), UniProt P52333); assay: JAK family kinase experiment, JAK3 (JH1); format: biochemical
Procedure: as §10, §11, §12, §13, §14, §15, §16, §17, §9

JAK2 (JH1) = JAK2 (JH1) (Homo sapiens (Human), UniProt O60674); assay: JAK family kinase experiment, JAK2 (JH1); format: biochemical
Procedure: as §10, §11, §12, §13, §14, §15, §16, §17, §9

TYK2 (JH1) = TYK2 (JH1) (Homo sapiens (Human), UniProt P29597); assay: JAK family kinase experiment, TYK2 (JH1); format: biochemical
Procedure: as §10, §11, §12, §13, §14, §15, §16, §17, §9

TYK2(JH2) = TYK2(JH2) (Homo sapiens (Human), UniProt P29597); assay: Pseudo kinase experiment, TYK2 (JH2), tracer/Tb; format: binding
Procedure: as §1, §2, §3, §4, §5, §6, §7, §8, §9

JAK1(JH2), sequence (P23458 583-855): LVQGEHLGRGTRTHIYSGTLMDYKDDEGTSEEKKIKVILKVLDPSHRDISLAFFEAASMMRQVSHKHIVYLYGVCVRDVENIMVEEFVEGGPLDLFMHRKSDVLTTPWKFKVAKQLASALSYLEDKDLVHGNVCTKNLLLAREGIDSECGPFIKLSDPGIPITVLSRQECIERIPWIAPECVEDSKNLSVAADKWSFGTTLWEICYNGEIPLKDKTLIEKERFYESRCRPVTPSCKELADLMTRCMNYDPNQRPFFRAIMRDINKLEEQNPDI
JAK3 (JH1), sequence (P52333 822-1111): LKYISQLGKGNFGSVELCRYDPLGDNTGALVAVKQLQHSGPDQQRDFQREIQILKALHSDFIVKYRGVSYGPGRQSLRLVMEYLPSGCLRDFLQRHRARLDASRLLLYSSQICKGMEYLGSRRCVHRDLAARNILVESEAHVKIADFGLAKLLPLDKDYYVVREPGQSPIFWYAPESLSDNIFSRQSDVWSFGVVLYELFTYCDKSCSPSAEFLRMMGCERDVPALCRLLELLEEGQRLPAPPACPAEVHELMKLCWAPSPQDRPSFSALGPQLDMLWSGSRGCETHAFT
TYK2 (JH1), sequence (P29597 897-1176): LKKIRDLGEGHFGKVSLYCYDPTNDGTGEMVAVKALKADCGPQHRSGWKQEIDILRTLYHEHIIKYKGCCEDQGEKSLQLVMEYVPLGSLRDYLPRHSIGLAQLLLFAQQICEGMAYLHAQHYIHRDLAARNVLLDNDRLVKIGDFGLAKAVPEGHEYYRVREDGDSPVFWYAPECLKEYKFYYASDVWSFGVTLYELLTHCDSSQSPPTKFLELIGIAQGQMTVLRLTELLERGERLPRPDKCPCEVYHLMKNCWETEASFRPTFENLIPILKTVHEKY
JAK2 (JH1), sequence (O60674 849-1124): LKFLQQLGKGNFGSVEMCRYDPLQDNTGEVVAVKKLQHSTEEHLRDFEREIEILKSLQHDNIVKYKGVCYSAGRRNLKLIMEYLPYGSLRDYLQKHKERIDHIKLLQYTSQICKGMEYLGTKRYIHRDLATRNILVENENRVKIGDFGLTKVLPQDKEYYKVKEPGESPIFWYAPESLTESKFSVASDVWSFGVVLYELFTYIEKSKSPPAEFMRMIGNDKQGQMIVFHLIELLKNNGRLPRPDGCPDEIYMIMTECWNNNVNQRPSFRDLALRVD
JAK1 (JH1), sequence (P23458 875-1153): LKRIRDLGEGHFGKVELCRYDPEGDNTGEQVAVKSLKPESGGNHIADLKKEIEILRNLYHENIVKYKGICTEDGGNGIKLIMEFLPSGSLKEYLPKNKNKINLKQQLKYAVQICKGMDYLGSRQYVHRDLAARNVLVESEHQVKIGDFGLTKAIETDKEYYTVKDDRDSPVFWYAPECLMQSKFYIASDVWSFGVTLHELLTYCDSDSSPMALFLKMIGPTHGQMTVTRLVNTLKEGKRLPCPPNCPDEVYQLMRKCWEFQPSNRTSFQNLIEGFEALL
TYK2(JH2), sequence (P29597 589-875): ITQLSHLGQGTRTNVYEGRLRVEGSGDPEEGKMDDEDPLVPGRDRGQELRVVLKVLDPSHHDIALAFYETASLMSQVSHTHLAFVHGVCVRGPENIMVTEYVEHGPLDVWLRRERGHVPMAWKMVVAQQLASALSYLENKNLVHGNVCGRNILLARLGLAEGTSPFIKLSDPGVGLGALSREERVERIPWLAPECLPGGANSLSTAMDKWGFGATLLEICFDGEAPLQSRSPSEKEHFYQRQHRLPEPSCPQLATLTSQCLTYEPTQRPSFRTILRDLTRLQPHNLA

Structure (SMILES): CCC(=O)c1cnc(NC(=O)[C@@H]2CC23CC3)cc1Nc1nccc(-c2cnn(C)n2)c1OC [Compound 1R]
- IC50 (pSTAT5 in CD3+ cells): > 0.05 µM

Structure (SMILES): CCC(=O)c1cnc(NC(=O)[C@H]2CC23CC3)cc1Nc1nccc(-c2cnn(C)n2)c1OC [Compound 1S]
- IC50 (pSTAT5 in CD3+ cells): < 0.05 µM

Structure (SMILES): CCC(=O)c1cnc(NC(=O)[C@@H]2CC23CC3)cc1Nc1cccc(-c2cnn(C)n2)c1OC [Compound 2R]
- IC50 (pSTAT5 in CD3+ cells): > 0.05 µM

Structure (SMILES): CCC(=O)c1cnc(NC(=O)[C@H]2CC23CC3)cc1Nc1cccc(-c2cnn(C)n2)c1OC [Compound 2S]
- IC50 (pSTAT5 in CD3+ cells): > 0.05 µM

Structure (SMILES): [2H]C([2H])([2H])n1ncc(-c2ccnc(Nc3cc(NC(=O)[C@@H]4CC45CC5)ncc3C(=O)CC)c2OC)n1 [Compound 3R]
- IC50 (pSTAT5 in CD3+ cells): < 0.05 µM

Structure (SMILES): [2H]C([2H])([2H])n1ncc(-c2ccnc(Nc3cc(NC(=O)[C@H]4CC45CC5)ncc3C(=O)CC)c2OC)n1 [Compound 3S]
- IC50 (pSTAT5 in CD3+ cells): < 0.05 µM

Structure (SMILES): [2H]C([2H])([2H])Oc1c(-c2cnn(C)n2)ccnc1Nc1cc(NC(=O)[C@@H]2CC23CC3)ncc1C(=O)CC [Compound 4R]
- IC50 (pSTAT5 in CD3+ cells): > 0.05 µM

Structure (SMILES): [2H]C([2H])([2H])Oc1c(-c2cnn(C)n2)ccnc1Nc1cc(NC(=O)[C@H]2CC23CC3)ncc1C(=O)CC [Compound 4S]
- concentration at 2 h ([1]; brain, 10 mg/kg, 10 mg QD oral, read-out: concentration in brain): 615 ng/mL
- concentration at 2 h ([1]; brain, 30 mg/kg, 30 mg BID oral, read-out: concentration in brain): 2360 ng/mL
- concentration at 2 h ([1]; brain, 30 mg/kg, 30 mg QD oral, read-out: concentration in brain): 2360 ng/mL
- concentration at 2 h ([1]; brain, 90 mg/kg, 90 mg QD oral, read-out: concentration in brain): 6260 ng/mL
- Kp at 2 h ([1]; 10 mg/kg, 10 mg QD oral): 0.788
- Kp at 2 h ([1]; 30 mg/kg, 30 mg BID oral): 0.88
- Kp at 2 h ([1]; 30 mg/kg, 30 mg QD oral): 1.11
- Kp at 2 h ([1]; 90 mg/kg, 90 mg QD oral): 1.32
- concentration at 2 h ([1]; plasma, 10 mg/kg, 10 mg QD oral, read-out: concentration in plasma): 784 ng/mL
- concentration at 2 h ([1]; plasma, 30 mg/kg, 30 mg BID oral, read-out: concentration in plasma): 2740 ng/mL
- concentration at 2 h ([1]; plasma, 30 mg/kg, 30 mg QD oral, read-out: concentration in plasma): 2040 ng/mL
- concentration at 2 h ([1]; plasma, 90 mg/kg, 90 mg QD oral, read-out: concentration in plasma): 4720 ng/mL
- IC50 (JAK1(JH2)): 0.022 µM
- IC50 (JAK1 (JH1)): > 9.9 µM
- IC50 (JAK3 (JH1)): > 9.9 µM
- IC50 (JAK2 (JH1)): 5.42 µM
- IC50 (TYK2 (JH1)): > 9.9 µM
- IC50 (TYK2(JH2)): 0.00029 µM
- IC50 (pSTAT5 in CD3+ cells): < 0.05 µM

Structure (SMILES): [2H]C([2H])([2H])Oc1c(-c2cnn(C([2H])([2H])[2H])n2)ccnc1Nc1cc(NC(=O)[C@@H]2CC23CC3)ncc1C(=O)CC [Compound 5R]
- IC50 (pSTAT5 in CD3+ cells): > 0.05 µM

Structure (SMILES): [2H]C([2H])([2H])Oc1c(-c2cnn(C([2H])([2H])[2H])n2)ccnc1Nc1cc(NC(=O)[C@H]2CC23CC3)ncc1C(=O)CC [Compound 5S]
- IC50 (pSTAT5 in CD3+ cells): < 0.05 µM

Structure (SMILES): CCC(=O)c1cnc(NC(=O)[C@@H]2CC23CC3)cc1Nc1nc(C)cc(-c2cnn(C)n2)c1OC [Compound 6R]
- IC50 (pSTAT5 in CD3+ cells): < 0.05 µM

Structure (SMILES): CCC(=O)c1cnc(NC(=O)[C@H]2CC23CC3)cc1Nc1nc(C)cc(-c2cnn(C)n2)c1OC [Compound 6S]
- IC50 (pSTAT5 in CD3+ cells): < 0.05 µM
